The text below walks through data of patent US20210008095A1, “METHODS FOR TREATING MUSCULAR DYSTROPHY” (Sarepta Therapeutics, Inc., priority 2015, published 2021).

Common to all, as to format: in vivo, human
For data set [1], the system named is dystrophin. The data set can be described thus: Dystrophin positive fibers by immunohistochemistry (MANDYS106) in muscle biopsy. How it is done: Patients continued weekly dosing with 30 or 50 mg/kg eteplirsen under Study 202 (Study no. 4658-us-202; ClinicalTrials.gov Identifier: NCT01540409) a long-term, open-label extension study. All efficacy assessments continued to be performed during Study 202, including a third biopsy (in the left deltoid muscle) in all patients at week 48. A voluntary fourth biopsy ( 11/12 patients) was performed at week 180. Monitoring of adverse events continued throughout the study.
Dystrophin expression levels were determined in both the eteplirsen treated cohort and matched external control cohort, based on MANDYS106 [a gift from Glen Morris, MDA Monoclonal Antibody Library], a highly sensitive marker for dystrophin used in prior studies of eteplirsen and other exon skipping candidates. Three 10 μm frozen sections, separated by at least 200 μm, were stained with MANDYS106, followed by a secondary antibody (Alexa Fluor 594 goat antimouse antibody). Four pathologists reviewed the tissue blinded and reported percent dystrophin-positive fibers, which were calculated by dividing the number of positive fibers by the total fibers counted. As normal muscle samples have 100% dystrophin-positive fibers, percent dystrophin-positive fibers is expressed as a percentage of normal.

Data set [2] concerns dystrophin. In words: Dystrophin protein expression by western blot analysis in muscle biopsy. To be noted: 180 weeks. The protocol:
In some embodiments, the percent dystrophin-positive fibers are calculated by dividing the number of positive fibers by the total fibers counted. Normal muscle samples have 100% dystrophin-positive fibers. Therefore, the percent dystrophin-positive fibers can be expressed as a percentage of normal. To control for the presence of trace levels of dystrophin in the pretreatment muscle as well as revertant fibers a baseline can be set using sections of pre-treatment muscles from each patient when counting dystrophin-positive fibers in post-treatment muscles. This may be used as a threshold for counting dystrophin-positive fibers in sections of post-treatment muscle in that patient. In other embodiments, antibody-stained tissue sections can also be used for dystrophin quantification using Bioquant image analysis software (Bioquant Image Analysis Corporation, Nashville, Tenn.). The total dystrophin fluorescence signal intensity can be reported as a percentage of normal. […] Dystrophin production can also be measured by reverse-transcription polymerase chain reaction (RT-PCR). […] The percentage of dystrophin-positive fibers can also be analyzed by determining the expression of the components of the sarcoglycan complex (β,γ) and/or neuronal NOS. […]
On the technique in general: A western blot detects proteins with antibodies after separation by electrophoresis.

Data set [3] in a line: Safety and tolerability monitoring, Study 201/202. The protocol:
Safety was assessed by evaluation of adverse events, vital signs, physical examinations, electrocardiograms, echocardiograms, and clinical laboratory testing. In addition, kidney function was monitored via regular assessments of serum cystatin C and urine cystatin C and KIM-1.

For data set [4], the system named is patients with Duchenne muscular dystrophy (DMD) amenable to exon 51 skipping. In words: Ability to rise independently from supine / rise time. From the text: In some embodiments, muscle function in a DMD patient may be assessed for ability to rise from a supine position without external assistance (independently). In some embodiments, the assessment can include whether or not the subject has the ability to rise from a supine position. In some embodiments, the assessment includes the time (e.g., in seconds) it takes for the patient to rise from a supine position without external assistance. Such measurements are well known to the skilled artisan and are described in, e.g., Bushby and Connor (2011) Clin Investig (Lond.) 1(9):1217-1235 and Henricson et al. (2013) Muscle Nerve 48(1):55-67, the disclosures of each of which are incorporated herein by reference in their entirety. In some embodiments, a patient treated by any of the methods described herein has lost the ability to rise independently from a supine position prior to beginning treatment with eteplirsen. In some embodiments, the patient lost the ability to rise independently from a supine position at least one (e.g., at least two, three, four, five, six, seven, eight, nine, 10, 11, 12, 16, 18, 20, 24, or more) month(s) prior to beginning treatment with eteplirsen. In some embodiments, a patient treated by any of the methods described herein loses the ability to rise independently from a supine position while being treated with eteplirsen. In some embodiments, the patient loses the ability to rise independently from a supine position at least one (e.g., at least two, three, four, five, six, seven, eight, nine, 10, 11, 12, 16, 18, 20, 24, 30, or 36 or more) month(s) after commencing treatment with eteplirsen.
The 6MWT was administered using the protocol established for patients with DMD by McDonald, et al. (Muscle Nerve, 2010; 42:966-74; Muscle Nerve, 2010; 41:500-10 herein incorporated by reference), except there was no use of the StepWatch actimetry device. Exploratory functional outcomes included the North Star Ambulatory Assessment, quantitative muscle testing, the 9-Hole Peg Test, pulmonary function testing (PFT), timed function tests, and assessment of quality of life.

The mark [5] stands for this setting: individual ambulatory subjects (n=10), year of loss of ability in brackets.

Where “and” joins values, the source holds several entries; their conditions need not be identical. Equal entries are not always repeated.

With “RNA, [P-deoxy-P-(dimethylamino)](2′,3′-dideoxy-2′,3′-imino-2′,3′-seco)(2′a→5′)(C-m5U-C-C-A-A-C-A-m5U-C-A-A-G-G-A-A-G-A-m5U-G-G-C-A-m5U-m5U-m5U-C-m5U-A-G), 5′-[P-[4-[[2-[2-(2-hydroxyethoxy)ethoxy]ethoxy]carbonyl]-1-piperazinyl]-N,N-dimethylphosphonamidate] (antisense CTCCAACATCAAGGAAGATGGCATTTCTAG; all phosphorodiamidate morpholino (PMO); 5' piperazinyl triethylene glycol carbamate tail on phosphonamidate, further chemistry not fully specified) [eteplirsen]”, in the data set on dystrophin [1] (180 weeks), the “patients with dystrophin positive fibers as measured by immunohistochemistry” value is recorded as 10 of 11. Also, the “dystrophin positive fibers compared to matched external control patients” value in the data set with dystrophin [1] (after 180 weeks, four blinded pathologists, p<0.001) is “significantly higher amount of dystrophin positive fibers”. Further, the “patients with dystrophin protein expression as measured by western blot analysis” value in the data set with dystrophin [2] is 9 of 11. The “drug-related serious adverse events” value in data set [3] (over 2300 doses, 192 week treatment period) is reported as “no drug-related serious adverse events”. Besides, in data set [3] (through 216 weeks of treatment), the “chemistries: hematologic, renal, coagulation or liver functions” value is listed as “no clinically significant changes in hematologic, renal, coagulation or liver functions”; the “electrocardiograms, echocardiograms and PFTs” value was “remained stable”; the “physical examination and vital signs” value is on record as “no clinically significant changes”; the “tolerability: adverse events, discontinuations, missed doses” value is “well tolerated with no treatment-related adverse events, serious adverse events, discontinuations or missed doses”. Also, the “number of patients who lost the ability to rise without external support” value in data set [4] (from years 1 to 3) is given as “four”. Further, in data set [4] (setting [5]), the “Year 3 Rise Time” value was 24.1 s and 17.9 s and 13.1 s and 8.9 s and 8.2 s and 6.2 s; the “Year 3 Rise Time(s)” value is given as “Unable to rise”.
